# Reference: US20220380368A1, “SPIROCYCLIC ANDROGEN RECEPTOR PROTEIN DEGRADERS” (THE REGENTS OF THE UNIVERSITY OF MICHIGAN, priority 2019, published 2022)
# Molecular target: T1, AR protein (Homo sapiens, UniProt P10275)
# T1 construct: endogenous in cells; host or cells: VCaP
# T1 sequence (P10275 1-920): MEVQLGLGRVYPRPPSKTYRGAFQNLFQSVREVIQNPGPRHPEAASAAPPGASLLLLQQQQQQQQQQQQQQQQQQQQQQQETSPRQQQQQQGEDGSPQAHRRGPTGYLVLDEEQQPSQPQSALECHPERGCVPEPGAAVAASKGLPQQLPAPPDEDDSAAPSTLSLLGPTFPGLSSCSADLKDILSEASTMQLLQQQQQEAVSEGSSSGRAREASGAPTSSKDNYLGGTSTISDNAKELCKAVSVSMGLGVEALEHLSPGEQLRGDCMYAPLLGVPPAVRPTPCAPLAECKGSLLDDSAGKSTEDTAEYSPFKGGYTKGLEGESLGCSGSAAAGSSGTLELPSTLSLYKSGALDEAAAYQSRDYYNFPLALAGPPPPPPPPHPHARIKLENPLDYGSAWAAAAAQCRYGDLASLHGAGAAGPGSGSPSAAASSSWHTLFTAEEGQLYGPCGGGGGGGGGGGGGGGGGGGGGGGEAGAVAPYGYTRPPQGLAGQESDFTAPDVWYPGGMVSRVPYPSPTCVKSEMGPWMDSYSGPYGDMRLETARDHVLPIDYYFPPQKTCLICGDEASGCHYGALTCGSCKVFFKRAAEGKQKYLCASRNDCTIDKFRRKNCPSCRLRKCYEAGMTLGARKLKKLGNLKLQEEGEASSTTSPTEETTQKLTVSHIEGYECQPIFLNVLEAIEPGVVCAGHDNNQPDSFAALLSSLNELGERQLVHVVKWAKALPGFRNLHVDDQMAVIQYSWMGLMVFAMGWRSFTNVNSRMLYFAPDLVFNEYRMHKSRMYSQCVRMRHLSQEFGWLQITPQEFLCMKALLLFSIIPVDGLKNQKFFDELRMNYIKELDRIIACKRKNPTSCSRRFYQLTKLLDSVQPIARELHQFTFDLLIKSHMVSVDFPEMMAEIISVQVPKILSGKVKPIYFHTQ
# Test: Western blotting analysis of AR protein levels in VCaP cells, band quantification, DC50/DC90
# Assay type: cell-based
# Details: VCaP cells, Table 6; read-out: VCaP DC50
# Method: The appropriate cell line, e.g., prostate cancer LNCaP, Vcap, or 22RV1 cell line, was treated with Compounds of the Disclosure as indicated. The treated cells were lysed with RIPA buffer. […] GAPDH was used as a loading control.
# Bands were quantified with ImageJ software. The relative numbers of each band obtained from normalization with its corresponding GAPDH level were compared with Prism 8 software. The DC50 values were produced from Prism 8, and the DC90 values were calculated with an equation=Bottom+(Top−Bottom)/(1+10^((Log EC50−X)*HillSlope) based on DC50 and Hillslope values.
row,SMILES,DC50 [nM]
1,"C[C@H]1CC2(CCN(c3ncc(C(=O)N4CCN(C5CCN(c6ccc7c(c6)C(=O)N(C6CCC(=O)NC6=O)C7=O)CC5)CC4)cn3)CC2)CN1c1ccc(C#N)c(Cl)c1 (stereo partly drawn) [Cpd. No. 513, 2-chloro-4-((3S)-8-(5-(4-(1-(2-(2,6-dioxopiperidin-3-yl)-1,3-dioxoisoindolin-5-yl)piperidin-4-yl)piperazine-1-carbonyl)pyrimidin-2-yl)-3-methyl-2,8-diazaspiro[4.5]decan-2-yl)benzonitrile]",< 1
2,"C[C@H]1CC2(CCN(c3ncc(C(=O)N4CCC(N5CCN(c6ccc7c(c6)C(=O)N(C6CCC(=O)NC6=O)C7=O)CC5)CC4)cn3)CC2)CN1c1ccc(C#N)c(Cl)c1 (stereo partly drawn) [Cpd. No. 514, 2-chloro-4-((3S)-8-(5-(4-(4-(2-(2,6-dioxopiperidin-3-yl)-1,3-dioxoisoindolin-5-yl)piperazin-1-yl)piperidine-1-carbonyl)pyrimidin-2-yl)-3-methyl-2,8-diazaspiro[4.5]decan-2-yl)benzonitrile]",< 1
3,"C[C@H]1CC2(CCN(c3ccc(C(=O)N4CC[C@@H](N5CCN(c6cc7c(cc6F)C(=O)N(C6CCC(=O)NC6=O)C7=O)CC5)C4)cc3)CC2)CN1c1ccc(C#N)c(Cl)c1 (stereo partly drawn) [Cpd. No. 515, 2-chloro-4-((3S)-8-(4-((3R)-3-(4-(2-(2,6-dioxopiperidin-3-yl)-6-fluoro-1,3-dioxoisoindolin-5-yl)piperazin-1-yl)pyrrolidine-1-carbonyl)phenyl)-3-methyl-2,8-diazaspiro[4.5]decan-2-yl)benzonitrile]",10 to 100
4,"C[C@H]1CC2(CCN(c3ccc(C(=O)N4CC[C@H](N5CCN(c6ccc7c(c6)C(=O)N(C6CCC(=O)NC6=O)C7=O)CC5)C4)cc3)CC2)CN1c1ccc(C#N)c(Cl)c1 (stereo partly drawn) [Cpd. No. 516, 2-chloro-4-((3S)-8-(4-((3S)-3-(4-(2-(2,6-dioxopiperidin-3-yl)-1,3-dioxoisoindolin-5-yl)piperazin-1-yl)pyrrolidine-1-carbonyl)phenyl)-3-methyl-2,8-diazaspiro[4.5]decan-2-yl)benzonitrile]",1 to 10
5,"C[C@H]1CC2(CCN(c3ccc(C(=O)N4CC[C@@H](N5CCN(c6cc7c(cc6F)C(=O)N(C6CCC(=O)NC6=O)C7=O)CC5)C4)cc3)CC2)CN1c1ccc(C#N)c(Cl)c1 (stereo partly drawn) [Cpd. No. 517, 2-chloro-4-((3S)-8-(4-((3R)-3-(4-(2-(2,6-dioxopiperidin-3-yl)-6-fluoro-1,3-dioxoisoindolin-5-yl)piperazin-1-yl)pyrrolidine-1-carbonyl)phenyl)-3-methyl-2,8-diazaspiro[4.5]decan-2-yl)benzonitrile]",1 to 10
6,"C[C@H]1CC2(CCN(c3ccc(C(=O)N4CCN(C5CCN(c6ccc7c(c6)C(=O)N(C6CCC(=O)NC6=O)C7=O)CC5)CC4)cc3F)CC2)CN1c1ccc(C#N)c(Cl)c1 (stereo partly drawn) [Cpd. No. 518, 2-chloro-4-((3S)-8-(4-(4-(1-(2-(2,6-dioxopiperidin-3-yl)-1,3-dioxoisoindolin-5-yl)piperidin-4-yl)piperazine-1-carbonyl)-2-fluorophenyl)-3-methyl-2,8-diazaspiro[4.5]decan-2-yl)benzonitrile]",10 to 100
7,"C[C@H]1CC2(CCN(c3ccc(C(=O)N4CCN(C5CCN(c6ccc7c(c6)C(=O)N(C6CCC(=O)NC6=O)C7=O)CC5)CC4)cc3F)CC2)CN1c1ccc(C#N)c(Cl)c1 (stereo partly drawn) [Cpd. No. 519, 2-chloro-4-((3S)-8-(4-(4-(1-(2-(2,6-dioxopiperidin-3-yl)-1,3-dioxoisoindolin-5-yl)piperidin-4-yl)piperazine-1-carbonyl)-2-fluorophenyl)-3-methyl-2,8-diazaspiro[4.5]decan-2-yl)benzonitrile]",< 1
8,"C[C@H]1CC2(CCN(c3ccc(C(=O)N4CCN(C5CCN(c6ccc7c(c6)C(=O)N(C6CCC(=O)NC6=O)C7=O)CC5)CC4)cc3F)CC2)CN1c1ccc(C#N)c(Cl)c1 (stereo partly drawn) [Cpd. No. 520, 2-chloro-4-((3S)-8-(4-(4-(1-(2-(2,6-dioxopiperidin-3-yl)-1,3-dioxoisoindolin-5-yl)piperidin-4-yl)piperazine-1-carbonyl)-2-fluorophenyl)-3-methyl-2,8-diazaspiro[4.5]decan-2-yl)benzonitrile]",< 1
9,"C[C@H]1CC2(CCN(c3ncc(C(=O)N4CCN(C5CN(c6cc7c(cc6F)C(=O)N(C6CCC(=O)NC6=O)C7=O)C5)CC4)cn3)CC2)CN1c1ccc(C#N)c(Cl)c1 (stereo partly drawn) [Cpd. No. 523, 2-chloro-4-((3S)-8-(5-(4-(1-(2-(2,6-dioxopiperidin-3-yl)-6-fluoro-1,3-dioxoisoindolin-5-yl)azetidin-3-yl)piperazine-1-carbonyl)pyrimidin-2-yl)-3-methyl-2,8-diazaspiro[4.5]decan-2-yl)benzonitrile]",< 1
10,"C[C@H]1CC2(CCN(c3ncc(C(=O)N4CCN(C5CCN(c6cc7c(cc6F)C(=O)N(C6CCC(=O)NC6=O)C7=O)CC5)CC4)cn3)CC2)CN1c1ccc(C#N)c(Cl)c1 (stereo partly drawn) [Cpd. No. 524, 2-chloro-4-((3S)-8-(5-(4-(1-(2-(2,6-dioxopiperidin-3-yl)-6-fluoro-1,3-dioxoisoindolin-5-yl)piperidin-4-yl)piperazine-1-carbonyl)pyrimidin-2-yl)-3-methyl-2,8-diazaspiro[4.5]decan-2-yl)benzonitrile]",< 1
11,"C[C@H]1CC2(CCN(c3ncc(C(=O)N4CCC(N5CCN(c6cc7c(cc6F)C(=O)N(C6CCC(=O)NC6=O)C7=O)CC5)CC4)cn3)CC2)CN1c1ccc(C#N)c(Cl)c1 (stereo partly drawn) [Cpd. No. 525, 2-chloro-4-((3S)-8-(5-(4-(4-(2-(2,6-dioxopiperidin-3-yl)-6-fluoro-1,3-dioxoisoindolin-5-yl)piperazin-1-yl)piperidine-1-carbonyl)pyrimidin-2-yl)-3-methyl-2,8-diazaspiro[4.5]decan-2-yl)benzonitrile]",< 1
12,"C[C@H]1CC2(CCN(c3ncc(C(=O)N4CCC(CN5Cc6cc7c(cc6C5)C(=O)N(C5CCC(=O)NC5=O)C7=O)CC4)cn3)CC2)CN1c1ccc(C#N)c(Cl)c1 (stereo partly drawn) [Cpd. No. 526, 2-chloro-4-((3S)-8-(5-(4-((6-(2,6-dioxopiperidin-3-yl)-5,7-dioxo-3,5,6,7-tetrahydropyrrolo[3,4-f]isoindol-2(1H)-yl)methyl)piperidine-1-carbonyl)pyrimidin-2-yl)-3-methyl-2,8-diazaspiro[4.5]decan-2-yl)benzonitrile]",< 1
13,"C[C@H]1CC2(CCN(c3ccc(C(=O)N4CCC(CN5Cc6cc7c(cc6C5)C(=O)N(C5CCC(=O)NC5=O)C7=O)CC4)cc3F)CC2)CN1c1ccc(C#N)c(Cl)c1 (stereo partly drawn) [Cpd. No. 527, 2-chloro-4-((3S)-8-(4-(4-((6-(2,6-dioxopiperidin-3-yl)-5,7-dioxo-3,5,6,7-tetrahydropyrrolo[3,4-f]isoindol-2(1H)-yl)methyl)piperidine-1-carbonyl)-2-fluorophenyl)-3-methyl-2,8-diazaspiro[4.5]decan-2-yl)benzonitrile]",< 1
14,"C[C@H]1CC2(CCN(c3ccc(C(=O)N4CCN(C5CN(c6cc7c(cc6F)C(=O)N(C6CCC(=O)NC6=O)C7=O)C5)CC4)c(F)c3)CC2)CN1c1ccc(C#N)c(Cl)c1 (stereo partly drawn) [Cpd. No. 530, 2-chloro-4-((3S)-8-(4-(4-(1-(2-(2,6-dioxopiperidin-3-yl)-6-fluoro-1,3-dioxoisoindolin-5-yl)azetidin-3-yl)piperazine-1-carbonyl)-3-fluorophenyl)-3-methyl-2,8-diazaspiro[4.5]decan-2-yl)benzonitrile]",< 1
